These results are taken from paper PMC3583349 (Pest management science, 2012).

What is called IC50 is the concentration that gives 50% inhibition. Usually Km stands for the concentration of substrate that gives half-maximal velocity. One may read the kcat as the number of substrate molecules converted per active site and unit of time at saturation. As usually defined, the Vmax is the rate approached at saturating substrate. As a reminder, the kcat/Km is the second-order rate constant that governs catalysis at low substrate concentration.

Data set [1] deals with T1, CpGSTD2 (Culex pipiens, UniProt H9M8E4).
T1 sequence (H9M8E4 1-214): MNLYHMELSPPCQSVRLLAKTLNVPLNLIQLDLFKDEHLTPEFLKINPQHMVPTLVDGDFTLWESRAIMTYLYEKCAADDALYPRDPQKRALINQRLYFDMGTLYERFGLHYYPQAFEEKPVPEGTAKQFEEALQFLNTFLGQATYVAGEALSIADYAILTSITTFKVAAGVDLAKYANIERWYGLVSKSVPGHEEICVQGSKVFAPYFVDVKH
The experiment in a line: biochemical.

The target in data set [2] is T2, CpGSTD1 (Culex pipiens, UniProt H9M8E3).
T2 sequence (H9M8E3 1-211): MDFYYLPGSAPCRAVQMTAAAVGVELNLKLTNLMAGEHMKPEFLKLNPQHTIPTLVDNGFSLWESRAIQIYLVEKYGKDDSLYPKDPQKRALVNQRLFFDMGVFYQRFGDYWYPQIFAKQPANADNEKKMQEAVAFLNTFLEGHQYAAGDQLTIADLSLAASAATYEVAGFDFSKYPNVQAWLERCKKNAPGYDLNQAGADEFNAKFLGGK
Put plainly: biochemical.

In data set [3] the target is T2, CpGSTD1. The experiment in a line: Permethrin metabolism assay. The note with it: for Ratio of the area under the curve relative to lambda cyhalothrin: after 2 h incubation at 30°C with CpGSTD1, 1 μM permethrin, HPLC. The format is biochemical.
For data set [4], the target named is T1, CpGSTD2. Put plainly: Permethrin metabolism assay. In kind it is biochemical. To be noted: for Ratio of the area under the curve relative to lambda cyhalothrin: after 2 h incubation at 30°C with CpGSTD2, 1 μM permethrin, HPLC.
The target in data set [5] is T2, CpGSTD1. Put plainly: Peroxidase activity assay with CMHP, CpGSTD1. To be noted: 0.125 to 1.0 mM CMHP, 7.5 mM reduced GSH, 25°C, pH 6.5. In kind it is biochemical.
Data set [6] addresses T1, CpGSTD2. Put plainly: Peroxidase activity assay with CMHP, CpGSTD2. The note with it: pH 7.5; conditions where a rate of at least 0.1 μmol min^−1 mg^−1 could be detected with CpGSTD1. In kind it is biochemical.
The target of data set [7] is T1, CpGSTD2.
Data set [8] addresses T2, CpGSTD1. The note with it: pH 6.5.
For data set [9], the target named is T2, CpGSTD1. To be noted: for Km: pH 6.5.
Data set [10] has as its target T2, CpGSTD1. Put plainly: DDT dehydrochlorination assay, CpGSTD1. In kind it is biochemical. To be noted: over a period of 2 h, 1 μM DDT, 15 mM reduced GSH, 30°C, pH 6.5, HPLC.
Data set [11] concerns AgGSTD1-6. To be noted: cited from earlier work.
Data set [12] addresses T1, CpGSTD2. The source holds these as a separate data set.
Data set [13] has as its system AdGSTD1-1. To be noted: cited from earlier work.
Data set [14] deals with GST-2. To be noted: cited from earlier work.
The test system of data set [15] is GST-1b. To be noted: cited from earlier work.
Substrate in data set [16]: O=[N+]([O-])c1ccc(Cl)c(Cl)c1
The experiment in a line: purified protein, by the assay type. To be noted: pH 7.5; 30.0 °C.

The mark [17] stands for this setting: 2 h, 30°C, conditions where a rate of 7 pmol min^−1 mg^−1 could have been reliably detected.
Where [18] appears, read: varying substrate 7.8 to 750 μM, 5 mM reduced GSH, 30°C, pH 7.5.

Where two headings read alike, the source gives them in different places.

As to `O=C(/C=C/c1ccc(O)cc1)c1ccccc1` [4-hydroxy chalcone, 4-hydroxychalcone], the IC50 in [1] was determined as 5 ± 0.2 µM; in data set [2], 16 ± 1 µM.
As to `C=C(CC)C(=O)c1ccc(OCC(=O)O)c(Cl)c1Cl` [ethacrynic acid (EA), ethacrynic acid], the IC50 in [1] was 2.5 ± 0.1 µM.
Take `CC1(C)C(C=C(Cl)Cl)C1C(=O)OCc1cccc(Oc2ccccc2)c1` (centres unmarked) [permethrin]: the metabolism of permethrin entry in data set [3] (setting [17]) and in data set [4] (setting [17]) was “neither CpGSTD1 nor CpGSTD2 are able to metabolize” each time.
As to `CC1(C)[C@H](C=C(Cl)Cl)[C@H]1C(=O)OCc1cccc(Oc2ccccc2)c1` [trans-permethrin], the “Ratio of the area under the curve relative to lambda cyhalothrin” value in data set [3] worked out at 0.24 ± 0.01; in data set [4] it was 0.29 ± 0.02.
As for `CC1(C)[C@H](C(=O)OCc2cccc(Oc3ccccc3)c2)[C@@H]1C=C(Cl)Cl` [cis-permethrin], the entries for the “Ratio of the area under the curve relative to lambda cyhalothrin” value in [3] and in data set [4] were 0.47 ± 0.02 and 0.51 ± 0.03, respectively.
For `CC(C)(OO)c1ccccc1` [CMHP, cumene hydroperoxide], in data set [5], the “rate of CMHP reduction (peroxidase activity)” value was 1.6 µmol/min/mg. Besides, the “activity towards CMHP (peroxidase activity)” value in data set [6] is given as “no detectable activity”.
In the case of `CCCCCCSC[C@H](NC(=O)CC[C@H](N)C(=O)O)C(=O)NCC(=O)O` [S-hexyl glutathione, S-hexylglutathione], the IC50 was 0.24 µM in data set [7], 0.24 ± 0.01 µM in [7] (pH 7.5) and 68 ± 3 µM in [8].
Consider `O=[N+]([O-])c1ccc(Cl)c(Cl)c1` [DCNB, 1,2-dichloro-4-nitrobenzene], for which the Km in data set [9] is 170 ± 10 µM.
For the molecule `Clc1ccc(C(c2ccc(Cl)cc2)C(Cl)(Cl)Cl)cc1` [DDT, 1,1,1-Trichloro-2,2-bis(4-chlorophenyl)ethane], the “rate of DDT metabolism to DDE” value in data set [10] is 6.4 ± 0.6 nmol per mg protein.
Turning to `O=[N+]([O-])c1ccc(Cl)c([N+](=O)[O-])c1` [CDNB, 1-chloro-2,4-dinitrobenze], the “catalytic efficiency ratio (kcat/KM)” value in data set [11] was 790000 M⁻¹ s⁻¹; in [13], 48000 M⁻¹ s⁻¹. The kcat in [12] (5 mM reduced GSH, 30°C, pH 7.5) came out at 7.0 s⁻¹. The “catalytic efficiency (kcat/KM) higher with CDNB than with DCNB” value in data set [12] (CpGSTD2) and in [9] (CpGSTD1) was “at least 100 fold” in each case. Further, the “turnover of CDNB faster than DCNB” value in data set [12] (CpGSTD2, CDNB versus DCNB) is “about 18 fold”; in data set [9] (CpGSTD1, CDNB versus DCNB) it was “about 230 fold”. For the same molecule, the Km was determined as 30 ± 2 µM in data set [12] (setting [18]) and 140 ± 10 µM in [9]. For the same molecule, in [12] (setting [18]), the Vmax stood at 18 ± 0.2 µmol/min/mg. Besides, in data set [9] (CpGSTD1 versus CpGSTD2), the “turnover of CDNB by CpGSTD1 faster than by CpGSTD2” value is “about 3 fold”.
Regarding `O=C(/C=C/c1ccccc1)c1ccccc1` [chalcone], the IC50 in data set [1] is 4 ± 0.2 µM; in data set [14] it was 165 µM; in data set [2] it was 12.1 ± 0.4 µM; in data set [15] it was 166 µM.

B1: CpGSTD2 (Culex pipiens) (protein)
chain: T1 sequence (H9M8E4 1-214)
Consider B1, for which, in [16], the Km is 220 ± 10 µM, the Vmax is 0.96 ± 0.02 µmol/min/mg, the kcat worked out at 0.4 s⁻¹ and the kcat/Km is 1700 M⁻¹ s⁻¹.
